# In patent US20230310356A1, “COMPOSITION FOR PREVENTING, AMELIORATING, OR TREATING BRAIN DAMAGE AND MILD COGNITIVE IMPAIRMENT COMPRISING GLUTAMINE AS EFFECTIVE COMPONENT” (INDUSTRY-ACADEMIC COOPERATION FOUNDATION GYEONGSANG …, priority 2020, published 2023):
# System: p67phox
# Assay: Double-IHC protein expression after CIS and glutamine supplementation: p67phox
# Assay type: in vivo, mouse
# Conditions: microglial cells in infralimbic cortex and hippocampal CA1 region; glutamine supplementation diet vs stress group
# Procedure: Control (CTL) is a group which received normal diet (common diet with nutritional balance) without any stress, CTL+Gln group is a normal diet group supplemented with glutamine (150 mg/kg of feed) and without any stress, STR is a normal diet group under stress, and STR+Gln group is a normal diet group supplemented with glutamine (150 mg/kg of feed) under stress. The stress group (STR) was individually brought by force to a restrainer for 2 hours every day (i.e., between 2 PM and 4 PM) so that the animals are applied with chronic immobilization stress for 15 days. To determine the specific changes in the brain tissues after glutamine supplementation, double staining was carried out with a cell marker so that the proteins related to a change in ROS/RNS content (i.e., iNOS; nNOS; and p47phox and p67phox as a subunit of NOX) with cell markers are analyzed by double-IHC (immunohistochemistry). Twenty-four hours after applying the last stress, the mouse was anesthetized with avertin, and perfused with PBS (pH 7.4) and 4% formaldehyde. After that, the brain was removed, fixed, and cut to a thickness with 40 μm. […]
structure (smiles),measurement,value
NC(=O)CC[C@H](N)C(=O)O [glutamine],expression amount of p67phox,statistically significant decrement
